Results reported in patent US20250051263A1, “NOVEL IONIZABLE LIPIDS AND LIPID NANOPARTICLES AND METHODS OF USING THE SAME” (Sail Biomedicines, Inc., priority 2021, published 2025).

What was measured:
[1] = tested on: Balb/c mice; test: In-vivo bioluminescent imaging after IV injection of Fluc mRNA LNP; details: Example 5 LNP (DOPE 35:16:46.5:2.5), IV, 5 μg FLUC + 5 μg EPO; for Bioluminescence (IV) Liver / Bioluminescence (IV) Spleen / Bioluminescence (IV) Whole Body / Bioluminescence (IV) Lung: 4-6 hours post-dose; for Spleen: Liver Ratio: ratio of bioluminescence
[2] = TNS (pKa) assay, apparent LNP pKa; assay type: physicochemical; details: Example 5 LNP lipid:DOPE:Plant Cholesterol:DMPE-PEG2k 35:16:46.5:2.5, FLUC/EPO 1:1 mRNA, N:P 6:1
Method in brief: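 LNPs (0.04 mg/mL mRNA in PBS) were mixed with TNS (0.3 mM stock in DMSO) in 20 buffers spanning pH 3.0–12.0 (10 mM phosphate/borate/citrate, 150 mM NaCl), in triplicate. Fluorescence was read at 321/445 nm and fitted to a 4-parameter sigmoid. The pH at half-maximal fluorescence gives the apparent pKa.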

| Compound | Bioluminescence (IV) Liver [1] | Bioluminescence (IV) Spleen [1] | Bioluminescence (IV) Whole Body [1] | Spleen: Liver Ratio [1] | pKa (TNS) [2] | Bioluminescence (IV) Lung [1] |
| --- | --- | --- | --- | --- | --- | --- |
| CCCCCC(CCCCC)CCCOC(=O)CCCCCCCN(CCCCCCCC(=O)OCCCC(CCCCC)CCCCC)CCNC(=O)CCC(=O)NCCN(CCCCCCCC(=O)OCCCC(CCCCC)CCCCC)CCCCCCCC(=O)OCCCC(CCCCC)CCCCC [Compound 2332, bis(4-pentyl-nonyl)13,16-dioxo-9,20-bis(8-oxo-8-((4-pentylnon-yl)oxy)octyl)-9,12,17,20-tetraazaocta-cosanedioate] | 2.8E+07 | 3.5E+05 | 9.8E+07 | 0.045 | 6.57 | – |
| CCCCCCCCCCCOC(=O)CCCCCN(CCCCCCCC(=O)OC(CCCCCCCC)CCCCCCCC)CCCNC(=O)CN(CC(=O)NCCCN(CCCCCCCC(=O)OC(CCCCCCCC)CCCCCCCC)CCCCCC(=O)OCCCCCCCCCCC)C(=O)CCN1CCCC1 [Compound 2353, 1-octylnonyl8-[3-[[2-[[2-[3-[[8-(1-octylnonoxy)-8-oxo-octyl]-(6-oxo-6-undecoxy-hexyl)amino]propylamino]-2-oxo-ethyl]-(3-pyrrolidin-1-ylpropanoyl)amino]acetyl]amino]propyl-(6-oxo-6-undecoxy-hexyl)amino]octanoate] | 9.7E+03 | 1.3E+05 | 7.8E+04 | 7.617 | 7.01 | 3.2E+04 |
| CCCCCCCCCCCC(=O)OCCCCCN(CCCCCCCC(=O)OC(CCCCCCCC)CCCCCCCC)CCNC(=O)CCC(=O)NCCN(CCCCCCCC(=O)OC(CCCCCCCC)CCCCCCCC)CCCCCOC(=O)CCCCCCCCCCC [Compound 2354, 5-[2-[[4-[2-[5-dodecanoyloxypentyl-[8-(1-octylnonoxy)-8-oxo-octyl]amino]ethylamino]-4-oxo-butanoyl]amino]ethyl-[8-(1-octylnonoxy)-8-oxo-octyl]amino] pentyl dodecanoate] | 5.6E+06 | 7.3E+05 | 4.5E+07 | 0.131 | 6.47 | 6.2E+03 |
| CCCCCCCCCC(C)COC(=O)CCCCCN(CCCCCCCC(=O)OC(CCCCCCCC)CCCCCCCC)CCNC(=O)CCC(=O)NCCN(CCCCCCCC(=O)OC(CCCCCCCC)CCCCCCCC)CCCCCC(=O)OCC(C)CCCCCCCCC (centres unmarked) [Compound 2355, 1-octylnonyl 8-[[6-(2-methylundecoxy)-6-oxo-hexyl]-[2-[[4-[2-[[6-(2-methylundecoxy)-6-oxo-hexyl]-[8-(1-octylnonoxy)-8-oxo-octyl]amino]ethylamino]-4-oxo-butanoyl]amino]ethyl]amino]octanoate] | 1.8E+07 | 4.6E+05 | 1.4E+08 | 0.026 | 6.2 | 5.9E+03 |
| CCCCCCCCCCC(CC)OC(=O)CCCCCN(CCCCCCCC(=O)OC(CCCCCCCC)CCCCCCCC)CCNC(=O)CCC(=O)NCCN(CCCCCCCC(=O)OC(CCCCCCCC)CCCCCCCC)CCCCCC(=O)OC(CC)CCCCCCCCCC (centres unmarked) [Compound 2356, 1-octylnonyl 8-[[6-(1-ethylundecoxy)-6-oxo-hexyl]-[2-[[4-[2-[[6-(1-ethylundecoxy)-6-oxo-hexyl]-[8-(1-octylnonoxy)-8-oxo-octyl]amino]ethylamino]-4-oxo-butanoyl]amino]ethyl]amino]octanoate] | 1.3E+08 | 1.3E+06 | 8.1E+08 | 0.010 | 6.01 | 9.1E+03 |
